Test results from patent US20250171462A1 (NICO Therapeutics, Inc., priority 2022, published 2025).
pIC50: −log10 of the molar value. Like-named read-outs stand apart in the source and are kept apart here.

Target: T1, full-length SARM1 (FL-SARM1) (Homo sapiens, UniProt Q6SZW1)
T1 sequence (Q6SZW1 28-724): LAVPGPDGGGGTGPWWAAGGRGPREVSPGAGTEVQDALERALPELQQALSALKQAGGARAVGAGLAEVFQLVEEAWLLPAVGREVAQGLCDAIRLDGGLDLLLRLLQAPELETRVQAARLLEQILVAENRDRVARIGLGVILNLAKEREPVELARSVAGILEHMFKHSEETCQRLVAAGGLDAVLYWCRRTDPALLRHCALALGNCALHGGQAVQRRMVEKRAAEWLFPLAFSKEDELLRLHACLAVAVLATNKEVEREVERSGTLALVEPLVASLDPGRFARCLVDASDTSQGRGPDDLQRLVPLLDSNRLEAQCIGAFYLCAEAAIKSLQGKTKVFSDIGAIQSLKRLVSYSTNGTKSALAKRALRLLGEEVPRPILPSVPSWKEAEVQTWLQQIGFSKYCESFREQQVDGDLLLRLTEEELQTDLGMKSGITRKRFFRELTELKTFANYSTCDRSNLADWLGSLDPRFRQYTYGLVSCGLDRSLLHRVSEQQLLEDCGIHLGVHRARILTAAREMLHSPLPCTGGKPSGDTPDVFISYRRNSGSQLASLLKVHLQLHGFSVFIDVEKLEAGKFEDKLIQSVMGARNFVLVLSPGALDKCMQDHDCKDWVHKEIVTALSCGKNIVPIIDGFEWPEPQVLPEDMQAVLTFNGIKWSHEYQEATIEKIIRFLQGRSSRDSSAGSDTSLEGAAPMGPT
Assay: FL-SARM1 cellular lysate assay (NAD/NADH-Glo detection of remaining NAD+, NMN-activated)
Details: for IC50: Activity (μM) (IC50)

[1] = read-out: Activity (IC50 class), 11 point curve
[2] = Activity (IC50 class), 11 point curve

Cc1ccc(NC(=O)N2C3C[C@@H](C#N)C[C@@H]2C3)cc1-c1ccccn1 [Example 75, trans-3-cyano-N-(4-methyl-3-(pyridin-2-yl)phenyl)-6-azabicyclo[3.1.1]heptane-6-carboxamide]
IC50 (11 point curve): 0.4 µM | pIC50 [1]: 6.00 to 10.00

Cc1cc(C)c(-c2ccccn2)cc1NC(=O)N1C2CCCC1C2 [Example 76, N-(2,4-dimethyl-5-(pyridin-2-yl)phenyl)-6-azabicyclo[3.1.1]heptane-6-carboxamide]
pIC50 [2]: 5.00 to 6.00 | IC50 (11 point curve): 6.8 µM

Cc1c(Cl)cc(NC(=O)N2C3CCCC2C3)cc1-c1ccccn1 [Example 77, N-(3-chloro-4-methyl-5-(pyridin-2-yl)phenyl)-6-azabicyclo[3.1.1]heptane-6-carboxamide]
IC50 (11 point curve): 0.8 µM | pIC50 [1]: 6.00 to 10.00

Cc1c(Br)cc(NC(=O)N2C3CCCC2C3)cc1-c1ccccn1 [Example 78, N-(3-bromo-4-methyl-5-(pyridin-2-yl)phenyl)-6-azabicyclo[3.1.1]heptane-6-carboxamide]
IC50 (11 point curve): 0.7 µM | pIC50 [1]: 6.00 to 10.00

CCO[C@H]1CC2C[C@H](C1)N2C(=O)Nc1ccc(C)c(-c2ccccn2)c1 [Example 79, trans-3-ethoxy-N-(4-methyl-3-(pyridin-2-yl)phenyl)-6-azabicyclo[3.1.1]heptane-6-carboxamide]
pIC50 [2]: 5.00 to 6.00 | IC50 (11 point curve): 2.8 µM

Cc1ccc(NC(=O)N2C3CC2c2ncnn2C3)cc1-c1ccccn1 (centres unmarked) [Example 80, N-(4-methyl-3-pyridin-2-ylphenyl)-3,5,6,9-tetrazatricyclo[6.1.1.02,6]deca-2,4-diene-9-carboxamide]
pIC50 [2]: < 5.00 | IC50 (11 point curve): 13 µM

Cc1cc(F)cnc1-c1cccc(NC(=O)N2C3CCCC2C3)c1 [Example 81, N-[3-(5-fluoro-3-methylpyridin-2-yl)phenyl]-6-azabicyclo[3.1.1]heptane-6-carboxamide]
pIC50 [2]: 5.00 to 6.00 | IC50 (11 point curve): 3.4 µM

Cc1cc(Cl)c(NC(=O)N2C3CCCC2C3)cc1-c1ccccn1 [Example 82, N-(2-chloro-4-methyl-5-pyridin-2-ylphenyl)-6-azabicyclo[3.1.1]heptane-6-carboxamide]
pIC50 [2]: 5.00 to 6.00 | IC50 (11 point curve): 1.5 µM

Cc1c(C#N)cc(NC(=O)N2C3CCCC2C3)cc1-c1ccccn1 [Example 83, N-(3-cyano-4-methyl-5-pyridin-2-ylphenyl)-6-azabicyclo[3.1.1]heptane-6-carboxamide]
pIC50 [2]: < 5.00 | IC50 (11 point curve): 35 µM

CCO[C@@H]1CC2C[C@H](C1)N2C(=O)Nc1ccc(C)c(-c2ccccn2)c1 [Example 84, cis-3-ethoxy-N-(4-methyl-3-(pyridin-2-yl)phenyl)-6-azabicyclo[3.1.1]heptane-6-carboxamide]
pIC50 [2]: 5.00 to 6.00 | IC50 (11 point curve): 1.6 µM

Cc1ccc(NC(=O)N2C3CC2CN(c2ccn(C)n2)C3)cc1-c1ccccn1 [Example 85, 3-(1-methylpyrazol-3-yl)-N-(4-methyl-3-pyridin-2-ylphenyl)-3,6-diazabicyclo[3.1.1]heptane-6-carboxamide]
pIC50 [2]: < 5.00 | IC50 (11 point curve): 23 µM

Cc1ccc(NC(=O)N2CC3CC3(c3ccccc3)C2)cc1-c1ccccn1 (centres unmarked) [Example 94, N-(4-methyl-3-pyridin-2-ylphenyl)-1-phenyl-3-azabicyclo[3.1.0]hexane-3-carboxamide]
pIC50 [2]: < 5.00 | IC50 (11 point curve): 15 µM

Cc1ccc(NC(=O)N2CCC[C@@H]2c2ccccc2)cc1-c1ccccn1 [Example 95, (2R)-N-(4-methyl-3-pyridin-2-ylphenyl)-2-phenylpyrrolidine-1-carboxamide]
pIC50 [2]: 5.00 to 6.00 | IC50 (11 point curve): 1.4 µM

Cc1ccc(NC(=O)N2CCC[C@H]2c2ccccc2)cc1-c1ccccn1 [Example 96, (2S)-N-(4-methyl-3-pyridin-2-ylphenyl)-2-phenylpyrrolidine-1-carboxamide]
IC50 (11 point curve): 0.7 µM | pIC50 [1]: 6.00 to 10.00

Cc1ccc(NC(=O)N2CC3CC3(C(F)(F)F)C2)cc1-c1ccccn1 (centres unmarked) [Example 97, N-(4-methyl-3-pyridin-2-ylphenyl)-1-(trifluoromethyl)-3-azabicyclo[3.1.0]hexane-3-carboxamide]
pIC50 [2]: < 5.00 | IC50 (11 point curve): 11 µM

Cc1ccc(NC(=O)N2CCCC3CC32)cc1-c1ccccn1 (centres unmarked) [Example 99, N-(4-methyl-3-pyridin-2-ylphenyl)-2-azabicyclo[4.1.0]heptane-2-carboxamide]
pIC50 [2]: < 5.00 | IC50 (11 point curve): 18 µM

Cc1ccc(NC(=O)N2C3CCC2c2ncccc23)cc1-c1ccccn1 (centres unmarked) [Example 100, N-(4-methyl-3-pyridin-2-ylphenyl)-3,11-diazatricyclo[6.2.1.02,7]undeca-2,4,6-triene-11-carboxamide]
IC50 (11 point curve): 0.6 µM | pIC50 [1]: 6.00 to 10.00

Cc1ccc(NC(=O)N2CCc3ccccc3C2)cc1-c1ccccn1 [Example 101, N-(4-methyl-3-pyridin-2-ylphenyl)-3,4-dihydro-1H-isoquinoline-2-carboxamide]
pIC50 [2]: 5.00 to 6.00 | IC50 (11 point curve): 10 µM

Cc1ccc(NC(=O)N2CCOc3ccccc3C2)cc1-c1ccccn1 [Example 102, N-(4-methyl-3-pyridin-2-ylphenyl)-3,5-dihydro-2H-1,4-benzoxazepine-4-carboxamide]
IC50 (11 point curve): 0.9 µM | pIC50 [1]: 6.00 to 10.00

Cc1ccc(NC(=O)C2C3CCC2CC3)cc1-c1cccnn1 (centres unmarked) [Example 103, N-(4-methyl-3-pyridazin-3-ylphenyl)bicyclo[2.2.1]heptane-7-carboxamide]
IC50 (11 point curve): 0.5 µM | pIC50 [1]: 6.00 to 10.00

Cc1ccc(NC(=O)C2C3CCC2CC3)cc1-c1ncccn1 (centres unmarked) [Example 106, N-(4-methyl-3-pyrimidin-2-ylphenyl)bicyclo[2.2.1]heptane-7-carboxamide]
pIC50 [2]: 5.00 to 6.00 | IC50 (11 point curve): 1 µM

Cc1ccc(NC(=O)C2CCC2C)cc1-c1ccccn1 (centres unmarked) [Example 112, 2-methyl-N-(4-methyl-3-pyridin-2-ylphenyl)cyclobutane-1-carboxamide]
pIC50 [2]: 5.00 to 6.00 | IC50 (11 point curve): 1.7 µM

Cc1ccc(NC(=O)C2CCCC2C)cc1-c1ccccn1 (centres unmarked) [Example 114, 2-methyl-N-(4-methyl-3-pyridin-2-ylphenyl)cyclopentane-1-carboxamide]
IC50 (11 point curve): 0.7 µM | pIC50 [1]: 6.00 to 10.00

Cc1ccc(NC(=O)C2(O)CCCC2)cc1-c1ccccn1 [Example 115, 1-hydroxy-N-(4-methyl-3-pyridin-2-ylphenyl)cyclopentane-1-carboxamide]
pIC50 [2]: < 5.00 | IC50 (11 point curve): 36 µM

Cc1ccc(NC(=O)C2C[C@H]3C[C@@H]23)cc1-c1ccccn1 (stereo partly drawn) [Example 117, cis-N-(4-methyl-3-pyridin-2-ylphenyl)bicyclo[2.1.0]pentane-2-carboxamide]
pIC50 [2]: 5.00 to 6.00 | IC50 (11 point curve): 4.6 µM

Cc1ccc(NC(=O)C2CC3(CC3)C2)cc1-c1ccccn1 [Example 119, N-(4-methyl-3-pyridin-2-ylphenyl)spiro[2.3]hexane-5-carboxamide]
pIC50 [2]: 5.00 to 6.00 | IC50 (11 point curve): 1.9 µM

Cc1ccc(NC(=O)C2C3CCC2C3)cc1-c1ccccn1 (centres unmarked) [Example 123, N-(4-methyl-3-pyridin-2-ylphenyl)bicyclo[2.1.1]hexane-5-carboxamide]
IC50 (11 point curve): 0.3 µM | pIC50 [1]: 6.00 to 10.00

O=C(Nc1ccc(C(F)(F)F)c(-c2ccc(F)cn2)c1)[C@@H]1CC1(F)F [Example 125, (1S)-2,2-difluoro-N-[3-(5-fluoropyridin-2-yl)-4-(trifluoromethyl)phenyl]cyclopro-pane-1-carboxamide]
pIC50 [2]: 5.00 to 6.00 | IC50 (11 point curve): 3.5 µM

O=C(Nc1ccc(C(F)F)c(-c2ccccn2)c1)[C@@H]1CC1(F)F [Example 126, (1S)-N-[4-(difluoromethyl)-3-pyridin-2-ylphenyl]-2,2-difluorocyclopropane-1-carboxamide]
pIC50 [2]: 5.00 to 6.00 | IC50 (11 point curve): 2.5 µM

C[C@H]1CC1c1ccc(NC(=O)[C@@H]2CC2(F)F)cc1-c1ccccn1 (stereo partly drawn) [Example 127, (1S)-2,2-difluoro-N-[4-[trans-2-methylcyclopropyl]-3-pyridin-2-ylphenyl]cyclopropane-1-carboxamide]
pIC50 [2]: 5.00 to 6.00 | IC50 (11 point curve): 5.6 µM

Cc1ccc(NC(=O)C23CC(C(F)(F)F)(C2)C3)cc1-c1ccccn1 [Example 129, N-(4-methyl-3-pyridin-2-ylphenyl)-3-(trifluoromethyl)bicyclo[1.1.1] pentane-1-carboxamide]
pIC50 [2]: 5.00 to 6.00 | IC50 (11 point curve): 9.1 µM

O=C(Nc1cccc(-c2ccccn2)c1)[C@@H]1CC1(F)F [Example 131, (1S)-2,2-difluoro-N-(3-pyridin-2-ylphenyl)cyclopropane-1-carboxamide]
pIC50 [2]: < 5.00 | IC50 (11 point curve): 18 µM

Cc1ccc(NC(=O)C2CN(CC(F)(F)F)C2)cc1-c1ccccn1 [Example 132, N-(4-methyl-3-pyridin-2-ylphenyl)-1-(2,2,2-trifluoroethyl)azetidine-3-carboxamide]
pIC50 [2]: < 5.00 | IC50 (11 point curve): 43 µM

CC1(c2ccc(NC(=O)[C@@H]3CC3(F)F)cc2-c2ccccn2)CC1 [Example 133, (1S)-2,2-difluoro-N-[4-(1-methylcyclopropyl)-3-pyridin-2-ylphenyl]cyclopropane-1-carboxamide]
pIC50 [2]: < 5.00 | IC50 (11 point curve): 24 µM
